# Source: patent US20260325655A1, “DECREASING THE INTRINSICALLY DISORDERED PROTEIN ALPHA-SYNUCLEIN’S LEVELS BY TARGETING ITS STRUCTURED MRNA WITH A RIBONUCLEASE TARGETING CHIMERA” (University of Florida Research Foundation, Incorporated, priority 2023, published 2026)
# Columns and labels:
# APP mRNA = APP mRNA in SH-SY5Y cells by RT-qPCR; type: cell-based, human
# Protocol: RNA extraction and reverse transcription-quantitative polymerase chain reaction (RT-qPCR). Total RNA was extracted from cells using a Quick-RNA MiniPrep Kit (Zymo Research) per the manufacturer's protocol including DNase treatment. For each sample, 200 ng of RNA was reverse transcribed into cDNA by using a qScript cDNA Synthesis Kit (QuantaBio) according to the manufacturer's instructions. To assess the relative mRNA levels, RT-qPCR was performed in triplicate using SYBR Green PCR mater mix (Applied Biosystems) with a Quant Studio 5 Real-Time PCR system. The relative levels of mRNA were calculated by using the ΔΔCt method as previously described.^8
# [1] = test system: PD patient-derived neurons; experiment: total RNA-seq in PD patient-derived dopaminergic neurons; type: cell-based, human
# Protocol: RNA-seq analysis. Total RNA was quantified using the Qubit 2.0 Fluorometer (Invitrogen) and an Agilent 2100 Bioanalyzer RNA nano chip. Samples with RIN>9.0 were proceeded to library preparation using NEBNext Ultra II Directional RNA Kit (Cat. #E7760, NEB) following manufacture's protocol. Briefly, 200 ng of total RNA was depleted of ribosomal RNA using the NEBNext rRNA Depletion Module. The product was chemically fragmented using NEBNext Magnesium RNA Fragmentation Module (E6150S, NEB) the at 94° C. for 15 min. First-strand synthesis was performed with random primers, and second strand was synthesized with dUTP in place of dTTP. After end repair and 3′ adenylation, the cDNA was ligated with adaptors and then treated with USER enzyme (Uracil-specific excision reagent). The product was PCR amplified with Illumina-barcoded primers to generate the cDNA libraries. The final libraries were analyzed on the bioanalyzer DNA chips, pooled in equimolar ratios, and loaded onto the NextSeq 500 v2.5 flow cell and sequenced with 2×40 bp paired-end chemistry. The raw data were aligned to the human genome using STAR.^11 Read counts were extracted using featureCounts,^12 and the differential gene analysis was performed using Deseq2.^13
# Dopamine neuron induction. For dopamine neuronal induction,^15,16 the dual-SMAD inhibition method^17 was used for floor plate (FP)-based midbrain dopamine (DA) neuron induction with modifications. Prior to differentiation, Matrigel matrix (BD) was thawed at 4° C. overnight or on ice until it is dissolved. Matrigel coated 6-well plates were prepared according to manufacturer's instructions and incubated at 37° C. for at least 1 h before use. iPSCs were dissociated with Accutase (STEMCELL Technologies) and plated (3.5×10^5-4×10^5 cells per cm^2) into a new Matrigel coated plate and grown in mTeSR medium (STEMCELL Technologies) with StemBeads FGF2 (StemCultures) and ROCK inhibitor Y27632 (5 μM, Tocris). After 24 to 48 h, when the cells reached 100% confluency, the differentiation protocol was initiated by feeding the cells with DMEM containing 15% KnockOut Serum Replacement (KSR, Gibco), 2 mM L-glutamine (L-Glut) and 10 μM β-mercaptoethanol for 11 days.
# Floor Plate (FP) induction protocol was followed based on timed exposure to BMP inhibitor LDN193189 (100 nM, PeproTech), ALK inhibitor SB431542 (10 μM, Tocris), recombinant mouse sonic hedgehog N-terminus SHH C25II (100 ng/ml, R&D), Smoothened agonist Purmorphamine (2 μM, PeproTech) and GSK3 inhibitor CHIR99021 (CHIR; 3 μM, PeproTech). KSR medium was gradually shifted to N2 medium (Neurobasal/N2 with B27 Plus Supplement; Gibco) starting on day 5 of differentiation as described previously.^18 On day 11, the medium was changed to Neurobasal/B27/L-Glut containing medium (NB/B27; Gibco) supplemented with CHIR (until day 13) and with BDNF (20 ng/ml; PeproTech), ascorbic acid (0.2 mM), GDNF (20 ng/ml; PeproTech), dibutyryl cAMP (0.5 mM; PeproTech), TGFβ3 (1 ng/ml; PeproTech), and γ-secretase inhibitor DAPT (10 μM; PeproTech) for 9 days. On Day 20 and Day 30 (midbrain DA neuron precursor stages), cells were dissociated using Accutase and replated at high cell density (8× 10^5 cells per cm^2) in dishes pre-coated with 15 μg/ml polyornithine/1 μg/ml laminin/2 μg/ml fibronectin in differentiation medium (NB/B27+BDNF, ascorbic acid, GDNF, dbcAMP, TGFβ3 and DAPT). […]
# [2] = among 461 genes significantly downregulated in PD neurons
# [3] = among 976 genes significantly upregulated in PD neurons
smiles,measurement,setting,value
CCOC(=O)C1=C(Nc2ccccc2)S/C(=C\c2ccc(OCCOCCOCCOCCNC(=O)CCCOc3ccc(-n4c(SCC(=O)Nc5ccc6cn[nH]c6c5)nnc4-c4ccncc4)cc3)c(O)c2)C1=O [Syn-RiboTAC],effect on APP mRNA level,APP mRNA,None of the three transcripts was affected
same,hexokinase 2 (HK2) expression,"[1]; PD patient-derived neurons, only gene besides SNCA",significantly decreased
same,number of PD-downregulated genes improved,[1]; [2],223
same,percent of PD-downregulated genes improved,[1]; [2],48%
same,number of PD-upregulated genes improved (decreased),[1]; [3],488
same,percent of PD-upregulated genes improved (decreased),[1]; [3],50%
